Measurements as given in patent publication US7122666B2, “Heteroaryl-substituted pyrrole derivatives, their preparation and their therapeutic uses” (Sankyo Company, Limited, priority 1999, dated 2006).

Legend:
[1] = test system: TNFα production in human whole blood; assay: Inhibition of the production of TNFα in vitro in human whole blood (Test Examples 1 and 1′); type: cell-based; conditions: Table 7′, lipopolysaccharide 10 μg/ml, 6 hours at 37° C., plasma TNFα by ELISA, least squares, read-out: Inhibitory Effect on TNFα Production (in vitro) IC50
Protocol: (§1) Inhibition of the Production of the Cytokines IL-1β and TNFα in Vitro in Human Whole Blood
(§2) This test was performed according to the method of Hartman, et al. [D. A. Hartman, S. J. Ochalski and R. P. Carlson; The effects of anti-inflammatory and antiallergic drugs on cytokine release after stimulation of human whole blood by lipopolysaccharide and zymosan A: Inflamm. Res., 44, 269 (1995)].
(§3) Peripheral blood samples were collected in the presence of heparin from healthy adult volunteers. 1000 μl of whole blood were added to an Eppendorf tube to which 2 μl of a dimethyl sulfoxide solution of the test compound had been added in advance, after which 10 μl of lipopolysaccharide (E. coli 026: B6 origin, Difco) were added as a stimulant (final concentration of said lipopolysaccharide: 10 μg/ml). This was mixed well and then incubated for 6 hours at 37° C. in the presence of 5% CO2. At the end of the incubation, the mixture was cooled to 4° C. to stop the reaction, followed immediately by centrifuging for 5 minutes at 14,000 rpm to separate and collect the supernatant plasma. The IL-1β and TNFα produced and released into the plasma were measured using a commercially available enzyme immunoassay (ELISA) kit [Cayman (IL-1β) and Genzyme (TNFα)]. The procedure was also repeated in the absence of test compound. The inhibitory effect [IC50 (μM)] on the production of IL-1β and TNFα was determined from the amounts of the cytokines produced in the presence and absence of the test compound.
(§4) Inhibition of the Production of the Cytokines IL-1β and TNFα In Vitro in Human Whole Blood
as §3, with “O26:” for “026:”, “plasma” for “plasma.”, “kits” for “kit”, “determined by the method of least squares” for “determined”

TNFα production = assay: Inhibition of the production of TNFα in vivo (Test Examples 2 and 2′); conditions: Table 9′; Balb/c mice, oral administration 30 minutes before intravenous lipopolysaccharide, plasma TNFα 1 hour after LPS
Protocol: This test was performed according to the method of Ochalski, et al. [S. J. Ochalski, D. A. Hartman, M. T. Belfast, T. L. Walter, K. B. Glaser and R. P. Carlson; Inhibition of endotoxin-induced hypothermia and serum TNF-α levels in CD-1 mice by various pharmacological agents: Agents Actions 39, C52–C54 (1993)].
The production of TNFα was induced in mice by the intravenous injection of lipopolysaccharide (E. coli O26: B6 origin, Difco) which was prepared to a concentration of 0.045 mg/ml using physiological saline. The saline preparation of lipopolysaccharide was administered at the rate of 10 ml/l kg of body weight into the caudal vein of Balb/c mice (males, age 5–7 weeks, body weight: approx. 22 g, Japan Charles River) which had been fasted overnight starting on the day before the experiment. One hour after administration, the mice were laparotomized under ether anaesthesia and blood was collected from the abdominal vena cava. Blood collection was performed using a 1 ml volume disposable syringe equipped with a 23G needle which had been moistened with heparin on the inside wall. Following blood collection, the blood was immediately transferred to a 1.5 ml volume Eppendorf tube and centrifuged at 4° C. and 14,000 rpm to separate the plasma. This plasma was then stored at −20° C. until measurement of TNFα. The measurement of the amount of TNFα was performed with a commercially available enzyme immunoassay (ELISA) kit (Mouse TNFα ELISA KIT, Genzyme).
To determine the inhibitory activity of the test compounds, each test compound was suspended in a 0.5% tragacanth solution and then administered orally to the Balb/c mice at the rate of 10 ml/1 kg of body weight 30 minutes before injection of lipopolysaccharide. The level of TNFα production was then determined as described above. In the control group, 0.5% tragacanth solution was administered at the rate of 10 ml/1 kg of body weight to the test mice instead of the solutions of the test compounds. A minimum of 3 dose levels of the test compound was administered to groups of 5 test mice for each test compound. The inhibitory rate relative to the control group was calculated for each dose level. From the inhibitory rates and the dosages, ID50 values were calculated by the least squares method.
The production of TNFα was induced in mice by the intravenous injection of lipopolysaccharide (E. coli O26: B6 origin, Difco) which was prepared to a concentration of 0.045 mg/ml using physiological saline. […]
To determine the inhibitory activity of the test compounds, each test compound was suspended in a 0.5% tragacanth solution and then administered orally to the Balb/c mice at the rate of 10 ml/1 kg of body weight 30 minutes before injection of lipopolysaccharide. The level of TNFα production was then determined as described above. […]

[2] = test system: IL-1β production in human whole blood; assay: Inhibition of the production of IL-1β in vitro in human whole blood (Test Examples 1 and 1′); type: cell-based; conditions: Table 8′, lipopolysaccharide 10 μg/ml, 6 hours at 37° C., plasma IL-1β by ELISA, least squares, read-out: Inhibitory Effect on IL-1β Production (in vitro) IC50
Protocol: as §1, §2, §3, §4
as §3, with “O26:” for “026:”, “plasma” for “plasma.”, “kits” for “kit”, “determined by the method of least squares” for “determined”

[3] = test system: adjuvant-induced arthritis; assay: Activity in preventing the development of adjuvant-induced arthritis in vivo (Test Examples 4 and 4′); conditions: Table 10′; Lewis rat, oral once a day from day 0 to day 20, inhibition of swelling of injected foot on day 21
Protocol: The test was performed according to the method described by Winder et al. (Arthritis Rheum., 12, 472–482, 1969). Heat-killed dried Mycobacterium butyricum (Difco Laboratories, Lot 679123) was ground on an agate mortar, and was then suspended in dry-sterilised liquid paraffin (first grade, Wako Pure Chemical Industries, Ltd.) to make a 2 ml suspension. The resulting suspension was then sonicated and used as an adjuvant. Arthritis was induced by the intradermal injection of the adjuvant (100 μg of heat killed dried bacterium/0.05 ml of paraffin/paw) into the heel of the right hind paw of a Lewis rat (male, age 8 weeks, Japan Charles River). […] The volumes of the swollen feet (adjuvant-injected right hind foot volume—non-injected left hind foot volume) were calculated. The percent inhibition of swelling of the injected foot of the treated animals as compared to that of the control animals on day 21 was calculated as follows. […] ID50 values were calculated using this curve. […] […]

CCC[C@H]1C[C@H]2C=C(c3c[nH]c(-c4ccc(F)cc4)c3-c3ccncc3)CCN2C1 [Example 43′, 2-(4-Fluorophenyl)-4-[(2S,8aS)-2-propyl-1,2,3,5,6,8a-hexahydroindolizin-7-yl]-3-(pyridin-4-yl)-1H-pyrrole]
IC50 [1]: 6 nM | Inhibitory Effect on TNFα Production (in vivo) IC50 (TNFα production): 0.40 mg/kg | IC50 [2]: 8 nM

CC[C@H]1C[C@H]2C=C(c3c[nH]c(-c4ccc(F)cc4)c3-c3ccncc3)CCN2C1 [Example 32′, 4-[(2S,8aS)-2-Ethyl-1,2,3,5,6,8a-hexahydroindolizin-7-yl)-2-(4-fluorophenyl)-3-(pyridin-4-yl)-1H-pyrrole]
IC50 [1]: 4.5 nM | Inhibitory Effect on TNFα Production (in vivo) IC50 (TNFα production): 0.61 mg/kg | IC50 [2]: 2.7 nM

CC1=CC2C=C(c3c[nH]c(-c4ccc(F)cc4)c3-c3ccncc3)CCN2C1 (stereo in doubt) [Example 31′, 2-(4-Fluorophenyl)-4-[(8aS)-2-methyl-3,5,6,8a-tetrahydroindolizin-7-yl]-3-(pyridin-4-yl)-1H-pyrrole]
IC50 [1]: 2.4 nM | Inhibitory Effect on TNFα Production (in vivo) IC50 (TNFα production): 0.36 mg/kg | IC50 [2]: 4.6 nM

Fc1ccc(-c2[nH]cc(C3=C[C@@H]4C[C@H](c5ccccc5)CN4CC3)c2-c2ccncc2)cc1 [Example 12′, 2-(4-Fluorophenyl)-4-[(2R,8aS)-2-phenyl-1,2,3,5,6,8a-hexahydroindolizin-7-yl]-3-(pyridin-4-yl)-1H-pyrrole]
IC50 [1]: 2.5 nM | IC50 [2]: 2.6 nM | Activity in Preventing the Development of Adjuvant-Induced Arthritis in vivo IC50 [3]: 2.1 mg/kg
